From PMC9570967 (Molecules, 2022)
Entries after “also recorded” stand apart in the source; their conditions may differ.

Tests used:
mouse mu opioid receptor [1] = target: T1, mouse mu opioid receptor (Mus musculus, UniProt P42866); experiment: Competition radioligand binding assay ([3H]naloxone, mMOR-CHO membranes); details: 1.4 nM [3H]naloxone, read-out: [3H]NLX Binding Ki
T1 construct: expressed in transfected cells; host or cells: CHO (mMOR-CHO), membrane homogenates
Protocol: In vitro binding assays were performed using monocloned mouse mu opioid receptor expressing Chinese hamster ovary (CHO) cells (mMOR-CHO). mMOR-CHO cell culture and membrane homogenate preparation were performed as previously described. All assays were duplicated and repeated at least three times.
Competition binding assays were performed as previously described. […] Bound radioactive ligand was isolated by filtration through GF/B glass fiber filters and rinsed three times with ice-cold wash buffer (50 mM Tris-HCl, pH 7.2). Bound radioactivity was determined via liquid scintillation ounting. […] The IC50 values were determined by nonlinear regression analysis using GraphPad Prism 9 (GraphPad Software, San Diego, CA, USA) and converted to Ki values using the Cheng–Prusoff equation.

mouse mu opioid receptor [2] = target: T1, mouse mu opioid receptor; experiment: [35S]GTPγS functional assay (mMOR-CHO membranes); format: biochemical; details: for EC50: mMOR-CHO membranes, read-out: GTPgS EC50; for Emax: read-out: GTPgS % Emax of (DAMGO)
squirrel monkeys [3] = experiment: Antinociception: warm-water tail-withdrawal; format: in vivo, squirrel monkeys (Saimiri sciureus); details: 52 °C water, cumulative dosing
Protocol: Male squirrel monkeys (Saimiri sciureus) were housed in a climate-controlled vivarium with a 12 h light/dark cycle (7 AM–7 PM) in the McLean Hospital Animal Care Facility (licensed by the U.S. Department of Agriculture and compliant with guidelines provided by the Committee on Care and Use of Laboratory Animals of the Institute of Laboratory Animals Resources, Commission on Life Sciences, National Research Council; 2011). Tail withdrawal latencies were assessed as described previously. Briefly, monkeys were seated in customized Plexiglas chairs that allowed their tails to hang freely. Tail withdrawal latencies were measured by immersing the subject’s tail in water held at 35 or 52 °C (temperatures were presented in a randomized order during successive test components). After obtaining a baseline tail withdrawal latency, complete dose response curves were generated in each subject using standard cumulative dosing procedures. Briefly, every 15 min after an injection tail-withdrawal latencies at each temperature were redetermined and subjects were injected with the next dose, such that the total (cumulative) dose was increased by ½ log10 units in each successive cycle. This procedure was repeated until either (a) the tail-withdrawal latency from 52 °C water reached the maximum allowable latency (10 sec), or (b) tail-withdrawal latency no longer increased with increases in dose of the test drug.
(§1) All statistical analyses and graphic representations were completed with GraphPad Prism version 9.3.0 (GraphPad Software, San Diego, CA, USA) using log transformed values of doses. Group means ± SEM tail withdrawal latencies (in sec) and minute volume ratios are plotted as a function of drug dose. Data were analyzed using One-way ANOVA with significance set at p < 0.05, followed by Dunnett’s multiple comparison test.

squirrel monkeys [4] = experiment: Respiratory depression: ventilatory response to hypercapnia (5% CO2 in air); format: in vivo, squirrel monkeys (Saimiri sciureus); details: ratio of minute volumes in 5% CO2 and room air, cumulative dosing
Protocol: Ventilation measures were assessed as described previously. Briefly, squirrel monkeys were acclimated to a customized acrylic chamber (10″ d × 10″ w × 10″ h) that served as a whole-body plethysmograph (EMKA Technologies, Montreal, PQ, Canada). Gas (either air or a 5% CO2 in air mixture) was introduced to and extracted from the chamber at a constant flow rate of 5 L/min. Experimental sessions consisted of 4–6 consecutive 30 min cycles, each comprising a 20 min exposure to air followed by a 10 min exposure to 5% CO2. Drug effects were determined using cumulative dosing procedures, and injections were administered following each exposure to 5% CO2. Respiratory rate and tidal volume (mL/breath) were recorded over 1 min periods and were multiplied to provide minute volumes. Data from the last three minutes of each exposure to air or CO2 were averaged and used for analysis of drug effects on ventilation.
as §1

[5] = target: T2, human κ-opioid receptor (OPRK1) (Homo sapiens, UniProt P41145); details: versus EC90 of U50488H; normalized to nor-BNI
T2 sequence (P41145 whole entry): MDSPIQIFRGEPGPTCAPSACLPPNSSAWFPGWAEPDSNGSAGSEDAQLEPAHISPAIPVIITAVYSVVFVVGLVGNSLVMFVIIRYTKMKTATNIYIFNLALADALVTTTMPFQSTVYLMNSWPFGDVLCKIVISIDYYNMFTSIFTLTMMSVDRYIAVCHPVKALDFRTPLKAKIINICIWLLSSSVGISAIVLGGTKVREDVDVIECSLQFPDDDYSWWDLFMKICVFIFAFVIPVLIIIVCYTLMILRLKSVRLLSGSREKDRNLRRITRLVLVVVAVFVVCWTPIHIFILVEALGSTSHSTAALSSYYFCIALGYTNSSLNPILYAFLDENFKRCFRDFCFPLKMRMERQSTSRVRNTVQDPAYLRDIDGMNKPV

[6] = target: T2, human κ-opioid receptor (OPRK1); experiment: cell-based
[7] = target: T2, human κ-opioid receptor (OPRK1); experiment: cell-based; remark: listed apart in the source
[8] = target: T3, human δ-opioid receptor (OPRD1) (Homo sapiens, UniProt P41143); experiment: Forskolin-induced cAMP accumulation assay, DOR agonist mode; details: for Emax: CHO-K1, read-out: DOR Agonist %Emax ± SEM
T3 sequence (P41143 whole entry): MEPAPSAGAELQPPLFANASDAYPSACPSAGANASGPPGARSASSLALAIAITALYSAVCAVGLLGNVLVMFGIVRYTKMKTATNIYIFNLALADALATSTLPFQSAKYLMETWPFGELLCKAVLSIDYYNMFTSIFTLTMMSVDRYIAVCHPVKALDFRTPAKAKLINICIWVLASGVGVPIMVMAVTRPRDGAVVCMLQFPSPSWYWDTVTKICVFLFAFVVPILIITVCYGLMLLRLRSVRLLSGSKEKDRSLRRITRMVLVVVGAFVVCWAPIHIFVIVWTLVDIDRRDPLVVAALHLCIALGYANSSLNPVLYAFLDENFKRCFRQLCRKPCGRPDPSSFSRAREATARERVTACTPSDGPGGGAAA

[9] = target: T3, human δ-opioid receptor (OPRD1); experiment: Forskolin-induced cAMP accumulation assay, DOR antagonist mode; details: for DOR Antagonist %Imax ± SEM: versus EC50 of SNC80, normalized to naltrexone

T1 sequence (P42866 whole entry): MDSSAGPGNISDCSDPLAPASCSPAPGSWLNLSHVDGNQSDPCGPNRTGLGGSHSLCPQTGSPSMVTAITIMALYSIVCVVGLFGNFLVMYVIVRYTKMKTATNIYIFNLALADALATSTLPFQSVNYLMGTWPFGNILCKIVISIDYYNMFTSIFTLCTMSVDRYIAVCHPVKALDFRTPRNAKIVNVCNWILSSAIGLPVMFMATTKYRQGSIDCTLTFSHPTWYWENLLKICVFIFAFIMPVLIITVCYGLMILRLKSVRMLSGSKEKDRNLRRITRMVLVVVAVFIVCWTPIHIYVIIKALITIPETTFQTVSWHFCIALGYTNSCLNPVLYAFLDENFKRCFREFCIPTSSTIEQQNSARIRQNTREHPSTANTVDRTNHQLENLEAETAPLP

Compound	Ki (mouse mu opioid receptor [1]) [µM]	EC50 (mouse mu opioid receptor [2]) [µM]	Emax (mouse mu opioid receptor [2]) [%]	Effect on tail withdrawal latency (antinociception) (squirrel monkeys [3])	Effect on ventilatory ratio (respiratory depression) (squirrel monkeys [4])	KOR Antagonist %Imax ± SEM [5] [%]	EC50 [6] [µM]	IC50 [7] [µM]	EC50 [8] [µM]	IC50 [9] [µM]	DOR Antagonist %Imax ± SEM [9] [%]	Emax [8] [%]
C=C[C@H]1[C@H]2CCC[C@]1(c1cccc(O)c1)CCN2CCc1ccccc1 [Compound 8, 3-((1R,5S,9R)-2-Phenethyl-9-vinyl-2-azabicyclo [3.3.1]nonan-5-yl)phenol]	0.0005 ± 5e-05	0.00673 ± 0.00135	20.1 ± 0.78	significantly increased tail withdrawal latency; also recorded: had antinociceptive effects	reduced the ability of 5% CO2 to stimulate increases in ventilation; also recorded: morphine-like respiratory depressant effects	97.1 ± 9.2	> 10	0.074 ± 0.0305	> 10	0.113 ± 0.0436	119.1 ± 15.5	–
C=C[C@@H]1[C@H]2CCC[C@]1(c1cccc(O)c1)CCN2CCc1ccccc1 [Compound 9, 3-((1R,5S,9S)-2-Phenethyl-9-vinyl-2-azabicyclo [3.3.1]nonan-5-yl)phenol]	0.00191 ± 0.00013	0.037 ± 0.0155	10.5 ± 0.82	inconsistent effect of tail withdrawal latency; also recorded: antinociceptive effects in some, but not all subjects	did not alter ventilation; also recorded: did not produce morphine-like decreases in ventilatory ratio	101.8 ± 19.1	> 10	0.0198 ± 0.0097	0.057 ± 0.0214	–	–	22.6
C=C[C@H]1[C@@H]2CCC[C@@]1(c1cccc(OC)c1)CCN2CCc1ccccc1 [Compound 13, (1S,5R,9R)-5-(3-Methoxyphenyl)-2-phenethyl-9-vinyl-2-azabicyclo [3.3.1]nonane]	–	–	–	–	–	–	> 10	> 10	> 10	> 10	–	–
C=C[C@@H]1[C@@H]2CCC[C@@]1(c1cccc(O)c1)CCN2CCc1ccccc1 [Compound 14, 3-((1S,5R,9S)-2-Phenethyl-9-vinyl-2-azabicyclo [3.3.1]nonan-5-yl)phenol]	–	–	–	–	–	105.6 ± 4.6	> 10	0.128 ± 0.0482	0.122 ± 0.0472	–	–	40.6
C=C[C@H]1[C@@H]2CCC[C@@]1(c1cccc(O)c1)CCN2CCc1ccccc1 [Compound 15, 3-((1S,5R,9R)-2-Phenethyl-9-vinyl-2-azabicyclo [3.3.1]nonan-5-yl)phenol]	–	–	–	–	–	104.9 ± 11.2	> 10	0.0284 ± 0.0042	> 10	0.144 ± 0.041	201.4 ± 35.9	–
C/C=C\[C@H]1[C@H]2CCC[C@]1(c1cccc(O)c1)CCN2CCc1ccccc1 [Compound 17, 3-((1R,5S,9R)-2-Phenethyl-9-((Z)-prop-1-en-1-yl)-2-azabicyclo [3.3.1]nonan-5-yl)phenol]	0.00183 ± 0.00024	0.00964 ± 0.0017	18 ± 1.45	increased tail withdrawal latency; also recorded: consistent and significant antinociceptive effects	without significantly altering ventilation; also recorded: limited effects on ventilatory ratio	111.6 ± 7.9	> 10	0.035 ± 0.0097	> 10	0.113 ± 0.0198	143.3 ± 11.9	–
C/C=C\[C@@H]1[C@H]2CCC[C@]1(c1cccc(O)c1)CCN2CCc1ccccc1 [Compound 18, 3-((1R,5S,9S)-2-Phenethyl-9-((Z)-prop-1-en-1-yl)-2-azabicyclo [3.3.1]nonan-5-yl)phenol]	0.00056 ± 7e-05	0.00838 ± 0.00077	75.3 ± 3.83	–	–	114.8 ± 11.2	> 10	0.238 ± 0.0526	0.00969 ± 0.00223	–	–	74.5
C/C=C\[C@H]1[C@@H]2CCC[C@@]1(c1cccc(O)c1)CCN2CCc1ccccc1 [Compound 20, 3-((1S,5R,9R)-2-Phenethyl-9-((Z)-prop-1-en-1-yl)-2-azabicyclo [3.3.1]nonan-5-yl)phenol]	–	–	–	–	–	126.7 ± 2.6	> 10	0.00402 ± 0.00025	> 10	0.00752 ± 0.00293	142.5 ± 23.7	–
C/C=C\[C@@H]1[C@@H]2CCC[C@@]1(c1cccc(O)c1)CCN2CCc1ccccc1 [Compound 21, 3-((1S,5R,9S)-2-Phenethyl-9-((Z)-prop-1-en-1-yl)-2-azabicyclo [3.3.1]nonan-5-yl)phenol]	–	–	–	–	–	111.8 ± 2.2	> 10	0.163 ± 0.037	0.0605 ± 0.0037	–	–	66.7
CC/C=C\[C@H]1[C@H]2CCC[C@]1(c1cccc(O)c1)CCN2CCc1ccccc1 [Compound 23, 3-((1R,5S,9R)-9-((Z)-But-1-en-1-yl)-2-phenethyl-2-azabicyclo [3.3.1]nonan-5-yl)phenol]	–	–	–	–	–	109.5 ± 8.3	> 10	0.328 ± 0.0969	> 10	0.069 ± 0.0048	166.6 ± 40.0	–
CC/C=C\[C@@H]1[C@H]2CCC[C@]1(c1cccc(O)c1)CCN2CCc1ccccc1 [Compound 24, 3-((1R,5S,9S)-9-((Z)-But-1-en-1-yl)-2-phenethyl-2-azabicyclo [3.3.1]nonan-5-yl)phenol]	–	–	–	–	–	103.8 ± 9.2	> 10	0.283 ± 0.0464	> 10	3.22 ± 0.572	182.3 ± 56.4	–
CC/C=C\[C@@H]1[C@@H]2CCC[C@@]1(c1cccc(O)c1)CCN2CCc1ccccc1 [Compound 26, 3-((1S,5R,9S)-9-((Z)-But-1-en-1-yl)-2-phenethyl-2-azabicyclo [3.3.1]nonan-5-yl)phenol]	–	–	–	–	–	96.2 ± 0.9	> 10	0.0122 ± 0.0025	> 10	0.52 ± 0.144	226.1 ± 14.0	–
CC/C=C\[C@H]1[C@@H]2CCC[C@@]1(c1cccc(O)c1)CCN2CCc1ccccc1 [Compound 27, 3-((1S,5R,9R)-9-((Z)-But-1-en-1-yl)-2-phenethyl-2-azabicyclo [3.3.1]nonan-5-yl)phenol]	–	–	–	–	–	98.2 ± 2.3	> 10	0.00079 ± 0.00028	> 10	0.00822 ± 0.00244	211.5 ± 24.7	–
CN1CC[C@]23c4c5ccc(O)c4O[C@H]2[C@@H](O)C=C[C@H]3[C@H]1C5 [Morphine, reference compound]	–	–	–	significantly increased tail withdrawal latency	–	–	–	–	–	–	–	–
